Source: ChEMBL document CHEMBL1201862, “PubChem BioAssay data set” (2004)
The source made the active and inactive calls.

Key:
[1] = biological target: Serine/threonine-protein phosphatase (Candida dubliniensis (strain CD36 / CBS 7987 / NCPF 3949 / NRRLY-17841) (Yeast), UniProt B9W6M3); assay: blockers of CaCl2-induced CDRE-lacZ signaling – S. cerevisiae, luminescence, secondary, dose response (AID 2388); type: functional, cell-based;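 note: yeast reporter cells carrying a calcineurin-responsive lacZ construct stimulated with calcium chloride; luminescent beta-galactosidase reporter signal in whole cells rather than isolated phosphatase activity; potency for inhibition where a drop in reporter signal means calcineurin blockade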
[2] = biological target: ATP-dependent molecular chaperone HSP82 (Candida albicans (strain WO-1) (Yeast), UniProt C4YTQ8); assay: steroid-induced GRE reporter decrease in yeast – S. cerevisiae, luminescence, Hsp90 inhibitor project, dose response (AID 2400); type: functional, cell-based;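 note: beta-galactosidase luminescence from glucocorticoid response element reporter as proxy for Hsp90 function; inhibitor potency where signal loss means Hsp90 inhibition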
[3] = fluconazole-exposed Candida albicans growth modulators – fluorescence, retest, confirmation (AID 2467); type: functional, cell-based
[4] = NIH-3T3 fibroblast cytotoxicity, dose response, cytotoxicity control, cell-based, fluorescence, Alamar Blue, secondary assay (AID 2327); type: functional;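 note: NIH-3T3 mouse fibroblasts cultured with fluconazole at 8 µg/mL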
[5] = viability loss in CEM21 cells – cell-based, CellTiter-Glo luminescence, cherry-picked, cytotoxicity control for viral fusion inhibitor project, dose response (AID 652042); type: functional;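 note: potency for signal decrease meaning cytotoxicity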
[6] = off-target signal loss in HeLa-CEM21 co-culture – HeLa F-luc CTL cells, cherry-picked, counter-screen for HIV-1 Env fusion inhibitor project, dose response (AID 652040); type: functional, cell-based;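 note: potency for signal decrease marking cytotoxic or nonspecific inhibition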
[7] = blockers of HIV-1 envelope-mediated cell-cell fusion – cherry-pick, dose response (AID 652057); type: functional, cell-based
[8] = HIV-1 AD8 envelope cell-cell fusion blockers – cherry-pick, dose response (AID 652062); type: functional, cell-based;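 note: luciferase signal from cell-cell fusion driven by HIV-1 clade B AD8 Env; potency is for inhibitors of fusion seen as a drop in luminescence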
HEK293 [9] = assay: cells; details: Homo sapiens
HEK293 [10] = assay: cells; details: Homo sapiens; remark: listed apart in the source
[11] = blockers of HIV-1 ZM109 envelope-driven cell-cell fusion – HeLa effector, CEM target cells, luciferase, cherry-pick, dose response (AID 652058); type: functional, cell-based;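 note: luciferase signal from HIV-1 Env mediated cell-cell fusion of effector and target cells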
[12] = biological target: T1, Alkaline phosphatase, tissue-nonspecific isozyme (Homo sapiens, UniProt P05186); assay: potency against alkaline phosphatase TNAP – biochemical, luminescent, dose response, SAR follow-up (AID 1056)
T1 sequence (P05186 whole entry): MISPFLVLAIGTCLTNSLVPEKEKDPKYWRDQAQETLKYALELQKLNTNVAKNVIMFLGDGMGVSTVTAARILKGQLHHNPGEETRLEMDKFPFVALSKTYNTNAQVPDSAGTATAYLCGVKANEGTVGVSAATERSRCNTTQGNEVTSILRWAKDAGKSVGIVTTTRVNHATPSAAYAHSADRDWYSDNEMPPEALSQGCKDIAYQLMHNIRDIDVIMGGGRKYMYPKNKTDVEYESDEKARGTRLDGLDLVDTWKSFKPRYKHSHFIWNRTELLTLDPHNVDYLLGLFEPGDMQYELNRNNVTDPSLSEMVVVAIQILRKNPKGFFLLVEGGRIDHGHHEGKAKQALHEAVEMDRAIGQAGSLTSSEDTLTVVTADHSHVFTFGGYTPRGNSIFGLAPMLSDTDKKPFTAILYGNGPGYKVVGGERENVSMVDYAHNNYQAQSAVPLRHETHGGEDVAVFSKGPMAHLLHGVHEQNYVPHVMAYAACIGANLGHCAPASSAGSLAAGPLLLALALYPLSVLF

[13] = biological target: Glyceraldehyde-3-phosphate dehydrogenase (Homo sapiens, UniProt P04406)
[14] = biological target: Alkaline phosphatase, placental type (Homo sapiens, UniProt P05187); assay: human placental alkaline phosphatase inhibition – biochemical, luminescence, confirmation (AID 1512); type: functional
[15] = Trypanosoma cruzi growth suppression in host cells – NIH3T3 host cells, beta-gal luminescence, confirmation (AID 2044); type: functional, cell-based;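 note: intracellular parasites grown in NIH/3T3 mouse fibroblasts as host cells; luminescent beta-galactosidase reporter signal from transgenic T. cruzi replicating inside host cells; inhibitors lower the luminescence signal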
[16] = NIH3T3 cell viability loss – ATP luminescence, mouse fibroblasts, counter-screen, dose response (AID 2010); type: functional, cell-based;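 note: cells exposed to compound for about 90 hours before reading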
INS1 = assay: INS-1E survival protection against cytokine death – cell-based, luminescence, retest, dose response (AID 449756); type: functional; details: Rattus norvegicus;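 note: cell death triggered by IL-1 beta plus TNF-alpha plus IFN-gamma mixture; protective hits raise ATP signal compared with cytokine alone wells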
[17] = decrease of insulin promoter-GFP reporter – imaging, high-content screening, mouse beta cells (AID 1628); type: functional; details: MIN6
[18] = MIN6 cell viability loss – mouse insulinoma, cytotoxicity control, dose response (AID 2122); type: functional;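 note: confirmatory high-throughput counterscreen run to flag cytotoxic compounds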
[19] = biological target: Voltage-dependent T-type calcium channel subunit alpha-1H (Homo sapiens, UniProt O95180); type: functional;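 note: channel activity triggered by adding a high calcium stimulation buffer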
[20] = toxicity toward cultured mammalian cells – cell-based, plate reader, cherry-pick samples, cytotoxicity control, dose response (AID 504397); type: functional
[21] = biological target: T2, Corticotropin-releasing factor receptor 2/Corticotropin-releasing factor-binding protein (Homo sapiens, UniProt P24387+Q13324); assay: activators of CRF receptor 2 with binding protein – uHTS hits, confirmation (AID 602473); type: functional; details: read-out: EC50_Mean
T2 sequence (Q13324 whole entry): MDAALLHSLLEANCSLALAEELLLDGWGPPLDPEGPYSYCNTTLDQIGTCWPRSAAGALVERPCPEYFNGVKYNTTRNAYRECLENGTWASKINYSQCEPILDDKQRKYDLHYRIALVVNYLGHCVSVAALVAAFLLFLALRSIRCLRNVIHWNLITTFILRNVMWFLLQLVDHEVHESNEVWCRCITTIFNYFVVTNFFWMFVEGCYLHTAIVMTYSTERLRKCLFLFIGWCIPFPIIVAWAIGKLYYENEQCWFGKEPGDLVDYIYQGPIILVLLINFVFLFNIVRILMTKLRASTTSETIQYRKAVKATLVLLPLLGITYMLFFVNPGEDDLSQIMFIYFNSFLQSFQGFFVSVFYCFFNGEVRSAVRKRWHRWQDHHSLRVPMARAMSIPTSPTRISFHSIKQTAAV
T2 sequence (P24387 whole entry): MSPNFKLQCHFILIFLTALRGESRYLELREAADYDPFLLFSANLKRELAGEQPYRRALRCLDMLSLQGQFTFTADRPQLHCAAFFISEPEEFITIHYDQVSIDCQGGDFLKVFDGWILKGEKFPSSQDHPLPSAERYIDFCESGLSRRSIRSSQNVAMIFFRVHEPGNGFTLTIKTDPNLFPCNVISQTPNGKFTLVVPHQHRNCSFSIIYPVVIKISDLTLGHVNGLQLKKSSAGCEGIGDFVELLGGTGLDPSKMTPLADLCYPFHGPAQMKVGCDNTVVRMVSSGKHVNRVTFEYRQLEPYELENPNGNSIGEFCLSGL

[22] = biological target: T2, Corticotropin-releasing factor receptor 2/Corticotropin-releasing factor-binding protein; assay: Dose Response confirmation of uHTS hits for small molecule antagonists of the CRF-binding protein and CRF-R2 receptor complex.; type: functional; details: read-out: IC50_Mean
Escherichia coli = assay: microbe, parasite or virus in culture
Cannabinoid receptor 2 [23] = biological target: T3, Cannabinoid receptor 2 (Homo sapiens, UniProt P34972); assay: SAR analysis of antagonists of the Cannabinoid Receptor 2 using an Image-Based Assay - Set 3. [Related pubchem assays (depositor defined):AID2013, AID2026]; type: functional
Cannabinoid receptor 1 [24] = biological target: T4, Cannabinoid receptor 1 (Homo sapiens, UniProt P21554); assay: SAR analysis of agonists of the Cannabinoid Receptor 1 using an Image-Based Assay - Set 4. [Related pubchem assays (depositor defined):AID2013, AID2026]; type: functional
Cannabinoid receptor 1 [25] = biological target: T4, Cannabinoid receptor 1; assay: SAR analysis of antagonists of the Cannabinoid Receptor 1 using an Image-Based Assay - Set 4. [Related pubchem assays (depositor defined):AID2013, AID2026]; type: functional
Cannabinoid receptor 2 [26] = biological target: T3, Cannabinoid receptor 2; assay: SAR analysis of agonists of the Cannabinoid Receptor 2 using an Image-Based Assay - Set 3. [Related pubchem assays (depositor defined):AID2013, AID2026]; type: functional
[27] = biological target: T5, G-protein coupled receptor 35 (Homo sapiens, UniProt Q9HC97); assay: SAR analysis of Antagonists of the GPR35 Receptor using an Image-Based Assay - Set 6. [Related pubchem assays (depositor defined):AID2013, AID2026]; type: functional
[28] = biological target: T5, G-protein coupled receptor 35; assay: SAR analysis of Agonists of the GPR35 Receptor using an Image-Based Assay - Set 4. [Related pubchem assays (depositor defined):AID2013, AID2026]; type: functional
[29] = biological target: G-protein coupled receptor 55 (Homo sapiens, UniProt Q9Y2T6); assay: SAR Analysis of Selective Antagonists of GPR55 using an Image-Based Assay - Set 4. [Related pubchem assays (depositor defined):AID2013, AID2026]; type: functional;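 note: antagonism of response to 5 µM lysophosphatidylinositol agonist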
ORF 73 = biological target: T6, ORF 73 (Human herpesvirus 8, UniProt O40947); assay: KSHV LANA DNA-binding disruption – biochemical, fluorescence polarization, cherry-picked samples, dose response (AID 504725); design: species or system Human gammaherpesvirus 8;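 note: fluorescence polarization of a labeled DNA duplex reporting LANA DNA binding; potency is for inhibitors that block LANA binding to the DNA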
T6 sequence (O40947 whole entry): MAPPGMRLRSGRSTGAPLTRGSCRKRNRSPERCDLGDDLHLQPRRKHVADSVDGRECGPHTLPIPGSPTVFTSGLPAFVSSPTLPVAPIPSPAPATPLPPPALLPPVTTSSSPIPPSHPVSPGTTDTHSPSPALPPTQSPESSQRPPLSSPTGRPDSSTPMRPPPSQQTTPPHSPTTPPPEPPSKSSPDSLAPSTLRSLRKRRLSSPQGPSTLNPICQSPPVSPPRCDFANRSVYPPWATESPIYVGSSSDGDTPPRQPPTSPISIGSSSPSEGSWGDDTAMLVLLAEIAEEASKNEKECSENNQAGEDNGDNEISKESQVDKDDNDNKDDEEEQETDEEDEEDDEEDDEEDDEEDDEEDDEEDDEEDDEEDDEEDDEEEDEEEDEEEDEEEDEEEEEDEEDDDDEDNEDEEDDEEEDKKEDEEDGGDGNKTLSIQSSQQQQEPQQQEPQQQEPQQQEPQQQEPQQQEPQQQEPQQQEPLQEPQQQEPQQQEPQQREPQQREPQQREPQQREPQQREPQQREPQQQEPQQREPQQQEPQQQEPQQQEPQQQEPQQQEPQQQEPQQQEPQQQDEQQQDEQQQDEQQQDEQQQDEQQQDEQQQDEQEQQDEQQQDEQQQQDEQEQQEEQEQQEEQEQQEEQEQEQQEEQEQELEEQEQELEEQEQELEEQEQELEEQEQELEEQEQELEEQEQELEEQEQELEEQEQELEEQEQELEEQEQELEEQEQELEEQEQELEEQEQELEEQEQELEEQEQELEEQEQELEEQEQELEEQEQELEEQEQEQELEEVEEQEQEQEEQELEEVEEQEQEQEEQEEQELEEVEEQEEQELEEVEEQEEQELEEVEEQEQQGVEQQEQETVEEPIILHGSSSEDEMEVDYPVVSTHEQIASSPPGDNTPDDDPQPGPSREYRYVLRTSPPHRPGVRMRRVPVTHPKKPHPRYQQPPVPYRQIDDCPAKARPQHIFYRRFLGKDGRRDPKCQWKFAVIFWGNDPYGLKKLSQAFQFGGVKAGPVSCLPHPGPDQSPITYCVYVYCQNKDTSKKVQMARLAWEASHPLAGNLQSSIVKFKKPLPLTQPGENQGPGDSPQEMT

Keap1/Nrf2 = Keap1/Nrf2 (Homo sapiens, UniProt Q14145); assay: disruptors of Keap1 binding to Nrf2 peptide – biochemical, fluorescence polarization, cherry-picked samples, dose response (AID 588683)

T3 sequence (P34972 whole entry): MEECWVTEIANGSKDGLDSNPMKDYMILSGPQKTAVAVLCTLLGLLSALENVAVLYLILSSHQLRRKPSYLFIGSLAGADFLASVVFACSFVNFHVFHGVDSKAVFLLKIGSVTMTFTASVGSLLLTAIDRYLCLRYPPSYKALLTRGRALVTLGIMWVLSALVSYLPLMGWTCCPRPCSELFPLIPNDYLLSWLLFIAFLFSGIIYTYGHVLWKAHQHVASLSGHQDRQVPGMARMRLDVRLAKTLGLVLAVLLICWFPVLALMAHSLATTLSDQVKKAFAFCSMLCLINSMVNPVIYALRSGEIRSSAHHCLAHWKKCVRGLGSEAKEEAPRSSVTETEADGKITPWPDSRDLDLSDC
T5 sequence (Q9HC97 whole entry): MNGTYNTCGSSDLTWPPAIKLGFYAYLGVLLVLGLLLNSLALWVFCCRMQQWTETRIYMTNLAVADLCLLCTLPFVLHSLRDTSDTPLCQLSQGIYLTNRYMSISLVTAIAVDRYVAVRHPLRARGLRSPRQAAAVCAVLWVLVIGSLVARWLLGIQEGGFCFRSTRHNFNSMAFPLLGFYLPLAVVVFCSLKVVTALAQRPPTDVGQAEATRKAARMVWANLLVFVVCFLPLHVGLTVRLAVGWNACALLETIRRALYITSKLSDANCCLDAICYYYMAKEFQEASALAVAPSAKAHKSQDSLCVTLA
T4 sequence (P21554 whole entry): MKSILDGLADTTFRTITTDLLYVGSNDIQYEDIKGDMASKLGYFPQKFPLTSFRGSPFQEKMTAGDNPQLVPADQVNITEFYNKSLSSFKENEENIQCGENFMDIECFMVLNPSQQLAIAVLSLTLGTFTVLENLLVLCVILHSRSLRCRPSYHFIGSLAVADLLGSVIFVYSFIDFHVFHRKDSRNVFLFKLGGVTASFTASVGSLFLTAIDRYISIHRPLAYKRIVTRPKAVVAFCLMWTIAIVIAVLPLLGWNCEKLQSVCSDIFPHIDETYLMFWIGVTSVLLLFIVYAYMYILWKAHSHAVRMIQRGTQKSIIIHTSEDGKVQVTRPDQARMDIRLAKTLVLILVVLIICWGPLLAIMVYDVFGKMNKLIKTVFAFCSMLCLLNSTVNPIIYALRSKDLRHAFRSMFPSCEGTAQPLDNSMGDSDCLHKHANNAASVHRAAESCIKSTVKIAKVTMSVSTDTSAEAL
Sequence of G-protein coupled receptor 55 (Q9Y2T6 whole entry): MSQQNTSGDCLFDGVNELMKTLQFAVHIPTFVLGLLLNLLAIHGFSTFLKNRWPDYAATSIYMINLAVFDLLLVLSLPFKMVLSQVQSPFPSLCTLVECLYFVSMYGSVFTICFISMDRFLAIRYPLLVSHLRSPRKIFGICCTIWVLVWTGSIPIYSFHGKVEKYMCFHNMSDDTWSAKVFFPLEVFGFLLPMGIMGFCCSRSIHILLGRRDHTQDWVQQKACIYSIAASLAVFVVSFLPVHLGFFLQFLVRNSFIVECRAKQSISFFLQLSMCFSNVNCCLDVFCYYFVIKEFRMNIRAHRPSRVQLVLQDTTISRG
Sequence of Glyceraldehyde-3-phosphate dehydrogenase (P04406 whole entry): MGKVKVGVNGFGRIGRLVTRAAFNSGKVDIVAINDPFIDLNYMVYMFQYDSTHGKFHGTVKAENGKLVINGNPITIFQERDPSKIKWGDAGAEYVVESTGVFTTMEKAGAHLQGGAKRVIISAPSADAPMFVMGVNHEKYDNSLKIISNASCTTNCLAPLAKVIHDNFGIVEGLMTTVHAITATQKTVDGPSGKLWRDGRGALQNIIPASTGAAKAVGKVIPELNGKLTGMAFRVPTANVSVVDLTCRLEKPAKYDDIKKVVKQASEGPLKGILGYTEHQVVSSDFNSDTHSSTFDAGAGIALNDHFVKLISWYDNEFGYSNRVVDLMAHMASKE
Sequence of Serine/threonine-protein phosphatase (B9W6M3 whole entry): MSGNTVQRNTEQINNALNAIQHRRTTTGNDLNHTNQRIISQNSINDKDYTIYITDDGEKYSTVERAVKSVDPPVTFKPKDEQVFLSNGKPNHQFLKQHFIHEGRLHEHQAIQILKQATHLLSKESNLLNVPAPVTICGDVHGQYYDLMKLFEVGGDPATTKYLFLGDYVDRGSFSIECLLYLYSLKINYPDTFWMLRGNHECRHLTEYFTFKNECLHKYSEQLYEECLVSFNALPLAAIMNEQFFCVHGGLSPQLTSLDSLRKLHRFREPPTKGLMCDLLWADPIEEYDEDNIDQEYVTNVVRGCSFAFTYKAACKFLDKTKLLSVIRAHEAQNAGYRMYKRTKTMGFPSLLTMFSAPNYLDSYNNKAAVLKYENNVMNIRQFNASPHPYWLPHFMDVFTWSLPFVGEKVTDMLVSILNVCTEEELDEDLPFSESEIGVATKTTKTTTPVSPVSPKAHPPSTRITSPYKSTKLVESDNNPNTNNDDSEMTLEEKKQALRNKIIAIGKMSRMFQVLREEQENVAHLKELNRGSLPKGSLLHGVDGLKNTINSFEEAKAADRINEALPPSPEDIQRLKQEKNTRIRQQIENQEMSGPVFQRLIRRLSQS
Sequence of Voltage-dependent T-type calcium channel subunit alpha-1H (O95180 whole entry): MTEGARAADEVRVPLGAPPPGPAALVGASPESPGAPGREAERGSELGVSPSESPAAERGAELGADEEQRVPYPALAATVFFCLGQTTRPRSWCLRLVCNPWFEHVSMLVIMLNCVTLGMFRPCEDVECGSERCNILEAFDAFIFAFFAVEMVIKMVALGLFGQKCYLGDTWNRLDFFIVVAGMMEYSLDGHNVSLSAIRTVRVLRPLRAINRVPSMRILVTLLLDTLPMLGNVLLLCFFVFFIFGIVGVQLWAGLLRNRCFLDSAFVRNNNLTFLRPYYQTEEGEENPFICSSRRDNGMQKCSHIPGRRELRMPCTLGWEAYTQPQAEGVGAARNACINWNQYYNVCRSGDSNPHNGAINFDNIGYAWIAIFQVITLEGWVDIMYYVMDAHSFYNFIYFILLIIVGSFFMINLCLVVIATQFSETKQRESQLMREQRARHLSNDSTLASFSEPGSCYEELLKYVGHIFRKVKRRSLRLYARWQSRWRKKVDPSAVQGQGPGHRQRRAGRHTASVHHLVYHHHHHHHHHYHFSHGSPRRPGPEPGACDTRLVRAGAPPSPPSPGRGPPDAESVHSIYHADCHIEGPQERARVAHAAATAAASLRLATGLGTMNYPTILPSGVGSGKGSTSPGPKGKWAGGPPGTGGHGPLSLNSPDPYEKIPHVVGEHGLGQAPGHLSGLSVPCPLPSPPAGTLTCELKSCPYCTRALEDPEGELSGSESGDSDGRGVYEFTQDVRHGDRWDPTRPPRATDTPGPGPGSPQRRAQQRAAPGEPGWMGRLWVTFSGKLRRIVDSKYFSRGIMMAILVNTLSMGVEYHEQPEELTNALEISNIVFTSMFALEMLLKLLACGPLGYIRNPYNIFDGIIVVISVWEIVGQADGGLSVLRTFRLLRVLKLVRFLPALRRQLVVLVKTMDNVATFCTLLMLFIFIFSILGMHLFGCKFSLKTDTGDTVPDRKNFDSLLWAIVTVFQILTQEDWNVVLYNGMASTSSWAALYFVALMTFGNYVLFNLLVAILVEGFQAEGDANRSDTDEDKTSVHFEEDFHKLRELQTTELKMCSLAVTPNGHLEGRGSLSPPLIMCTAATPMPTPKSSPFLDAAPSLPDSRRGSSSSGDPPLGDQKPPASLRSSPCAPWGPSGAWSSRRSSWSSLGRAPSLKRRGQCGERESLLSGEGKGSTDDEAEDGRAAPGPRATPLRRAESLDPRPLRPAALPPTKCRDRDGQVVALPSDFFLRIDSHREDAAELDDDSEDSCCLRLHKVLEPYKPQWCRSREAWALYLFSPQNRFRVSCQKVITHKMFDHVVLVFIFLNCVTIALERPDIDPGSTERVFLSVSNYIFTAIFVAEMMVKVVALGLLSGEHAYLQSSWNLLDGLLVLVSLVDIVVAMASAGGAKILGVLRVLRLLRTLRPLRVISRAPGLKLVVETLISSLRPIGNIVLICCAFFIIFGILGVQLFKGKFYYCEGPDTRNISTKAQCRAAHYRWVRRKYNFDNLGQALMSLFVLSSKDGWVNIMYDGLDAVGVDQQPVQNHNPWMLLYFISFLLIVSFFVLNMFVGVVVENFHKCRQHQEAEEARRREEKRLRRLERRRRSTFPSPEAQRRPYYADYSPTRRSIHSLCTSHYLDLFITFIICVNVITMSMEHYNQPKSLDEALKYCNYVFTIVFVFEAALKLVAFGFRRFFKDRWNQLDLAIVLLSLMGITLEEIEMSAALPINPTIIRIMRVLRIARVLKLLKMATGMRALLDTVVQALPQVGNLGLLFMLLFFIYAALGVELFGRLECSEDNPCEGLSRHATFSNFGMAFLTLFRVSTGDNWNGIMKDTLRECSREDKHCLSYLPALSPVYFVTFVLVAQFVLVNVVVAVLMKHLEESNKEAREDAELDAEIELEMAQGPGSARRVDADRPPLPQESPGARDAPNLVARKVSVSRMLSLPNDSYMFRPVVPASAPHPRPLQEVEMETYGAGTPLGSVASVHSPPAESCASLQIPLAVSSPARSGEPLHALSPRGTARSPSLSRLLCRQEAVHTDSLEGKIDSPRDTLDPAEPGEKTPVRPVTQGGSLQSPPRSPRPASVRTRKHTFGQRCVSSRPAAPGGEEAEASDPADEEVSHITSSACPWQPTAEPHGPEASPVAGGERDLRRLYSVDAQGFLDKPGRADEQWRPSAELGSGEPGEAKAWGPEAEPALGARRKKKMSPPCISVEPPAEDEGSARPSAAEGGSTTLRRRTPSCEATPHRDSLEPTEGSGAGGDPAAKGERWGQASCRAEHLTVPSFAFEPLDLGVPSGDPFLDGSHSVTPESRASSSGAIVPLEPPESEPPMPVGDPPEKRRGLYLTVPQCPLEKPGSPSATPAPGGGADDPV

CCCCOc1cccc(C2C(C(=O)c3ccc(C)o3)=C(O)C(=O)N2Cc2ccco2)c1 (stereo unspecified)
EC50 [1]: > 180 µM (inactive) | EC50 [2]: 16.6 µM (active) | EC50 [3]: 0.398 µM (active) | EC50 [4]: > 150 µM (inactive)

COC(=O)c1c(NC(=O)CN2CCC3(O)CCCCC3C2c2cc(OC)ccc2OC)sc(C)c1C (stereo unspecified)
AC50 [5]: 48.1 µM (active) | AC50 [6]: 1.21 µM (active) | AC50 [7]: 0.472 µM (active) | AC50 [8]: 3.62 µM (active) | EC50 (HEK293 [9]): > 59.7 µM (inactive) | EC50 (HEK293 [10]): > 59.7 µM (inactive) | AC50 [11]: 1.15 µM (active)

COc1cc(CCc2nc(N)nn2-c2ccccc2)cc(OC)c1OC
IC50 [12]: > 100 µM (inactive) | IC50 [13]: > 100 µM (not active) | IC50 [14]: > 100 µM (inactive)

Cc1ccc(-c2cn3c([n+]2-c2ccccc2)CCC3)cc1
EC50 [15]: 0.94 µM (active) | EC50 [16]: > 60 µM (not active) | AC50 (INS1): 2.5 µM (active) | IC50 [17]: < 0.25 µM (active) | IC50 [18]: < 0.25 µM (active)

O=C(CN(C1CCCCC1)C1CCCCC1)N1CCc2ccccc2C1
EC50 [19]: 4.36 µM (active) | AC50 [20]: 204 µM (active)

COC(=O)c1ccc(OC(=O)c2nn(C)cc2Cl)c(OC)c1
EC50 [21]: > 53 µM (inactive) | IC50 [22]: > 47.1 µM (inactive) | AC50 (Escherichia coli): 42.7 µM (active)

Cc1ccc(-c2cc(C(F)F)n3ncc(C(=O)NN4CCCCC4)c3n2)cc1
IC50 [17]: 2.39 µM (active) | IC50 [18]: 6.4 µM (active)

O=C1CN(c2nc(-c3cccnc3)nc3sc4c(c23)CCCC4)CCN1
EC50 (HEK293 [9]): > 59.6 µM (inactive) | EC50 (HEK293 [10]): > 59.6 µM (inactive)

Cc1cc(C)cc(Nc2nc(-c3ccc(S(=O)(=O)N4CCCC4)cc3)cs2)c1
AC50 [20]: > 350 µM (inactive)

O=C(N1CCC(n2nc(-c3ccccc3)oc2=O)CC1)C1(c2ccccc2)CC1
IC50 (Cannabinoid receptor 2 [23]): > 32 µM (inactive) | EC50 (Cannabinoid receptor 1 [24]): > 32 µM (inactive) | IC50 (Cannabinoid receptor 1 [25]): 8.64 µM (active) | EC50 (Cannabinoid receptor 2 [26]): > 32 µM (inactive) | IC50 [27]: > 32 µM (inactive) | EC50 [28]: > 32 µM (inactive) | IC50 [29]: 17.4 µM (inactive)

Cc1ccc(-c2nnc(C)c3nn(-c4ccccc4)cc23)cc1
IC50 (Cannabinoid receptor 2 [23]): > 32 µM (inactive) | EC50 (Cannabinoid receptor 1 [24]): > 32 µM (inactive) | IC50 (Cannabinoid receptor 1 [25]): 4.61 µM (active) | EC50 (Cannabinoid receptor 2 [26]): > 32 µM (inactive) | IC50 [27]: > 32 µM (inactive) | EC50 [28]: > 32 µM (inactive) | IC50 [29]: > 32 µM (inactive)

O=C(c1ccccc1)c1ccc(O)cc1O [2,4-DIHYDROXYBENZOPHENONE]
AC50 (ORF 73): 5.38 µM (active) | AC50 (Keap1/Nrf2): 11.1 µM (active)

CC1CCc2c(N3CCC(O)CC3)c(F)cc3c(=O)c(C(=O)O)cn1c23 (stereo unspecified) [NADIFLOXACIN]
AC50 (Escherichia coli): 1.3 µM (active)
